SMILES strings stand for the structures. ≈ marks a conversion by molar mass, not a printed value.

For the assay, the system named is Moraxella catarrhalis A894. Put plainly: MIC by broth microdilution (cation-adjusted Mueller-Hinton Broth, CLSI M7-A7). Type of assay: cell-based. As to the method:
Minimal inhibitory concentrations (MICS; mg/l) were determined in cation-adjusted Mueller-Hinton Broth by a microdilution procedure following the description given in “Procedures for Dilution Antimicrobial Susceptibility Tests for Bacteria that Grow Aerobically”, Approved standard, 7th ed., Clinical and Laboratory Standards Institute (CLSI) Document M7-A7, Wayne, Pa., USA, 2006. All Example compounds were tested against several Gram positive and Gram negative bacteria such as S. aureus, E. faecalis, S. pneumoniae, M. catarrhalis, A. baumanii, E. coli or P. aeruginosa.
For orientation: Broth dilution looks for growth in wells or tubes with falling amounts of substance.

Usually MIC stands for the smallest concentration in the dilution series that meets the test's criterion for growth inhibition. The low end stands for a more susceptible organism, the high end for a less susceptible organism. Compound `COc1ccc2ncc(=O)n(CC(N)C(=O)NC[C@@H]3CN(c4ccc5c(c4)OCCO5)C(=O)O3)c2c1` (mixture of isomers) [Example 12, (RS)-2-amino-N-[(R)-3-(2,3-dihydro-benzo[1,4]dioxin-6-yl)-2-oxo-oxazolidin-5-ylmethyl]-3-(7-methoxy-2-oxo-2H-quinoxalin-1-yl)-propionamide] returned an MIC of 1 µg/mL.
Compound `COc1ccc2ccc(=O)n(C3CN(CCC4CN(c5ccc6c(c5)NC(=O)CS6)C(=O)O4)C3)c2c1` (racemic) [Example 5, (RS)-6-(5-{2-[3-(7-methoxy-2-oxo-2H-quinolin-1-yl)-azetidin-1-yl]-ethyl}-2-oxo-oxazolidin-3-yl)-4H-benzo[1,4]thiazin-3-one] returned an MIC of 0.25 µg/mL (≈ 0.494 µM).
The same measure, in the same setting: as for `COc1ccc2ncc(=O)n(CCNCCC3CN(c4cc5c(cn4)OCCO5)C(=O)O3)c2n1` (racemic) [Example 31, rac-4-(2-{2-[3-(2,3-dihydro-[1,4]dioxino[2,3-c]pyridin-7-yl)-2-oxo-oxazolidin-5-yl]-ethylamino}-ethyl)-6-methoxy-4H-pyrido[2,3-b]pyrazin-3-one], the figure is 1 µg/mL (≈ 2.13 µM); as for `COc1ccc2ncc(=O)n(CCNCCC3CN(c4ccc5c(n4)NC(=O)CO5)C(=O)O3)c2n1` (racemic) [Example 33, rac-6-(5-{2-[2-(6-methoxy-3-oxo-3H-pyrido[2,3-b]pyrazin-4-yl)-ethylamino]-ethyl}-2-oxo-oxazolidin-3-yl)-4H-pyrido[3,2-b][1,4]oxazin-3-one], not above 0.031 µg/mL; as for `COc1ccc2ccc(=O)n(CCCNC[C@@H]3CN(c4ccc5c(c4)NC(=O)CS5)C(=O)O3)c2c1` [Example 1, 6-((R)-5-{[3-(7-methoxy-2-oxo-2H-quinolin-1-yl)-propylamino]-methyl}-2-oxo-oxazolidin-3-yl)-4H-benzo[1,4]thiazin-3-one], not above 0.031 µg/mL.
Take `O=C1CSc2ccc(N3C[C@@H](CNCCCn4c(=O)ccc5ccc(Br)cc54)OC3=O)cc2N1` [Example 2]: the “MIC Moraxella catarrhalis A894” value is “<=0.031 mg/l”.
In the case of `COc1ccc2ccc(=O)n(CCCNC[C@@H]3CN(c4ccc5c(c4)OCCO5)C(=O)O3)c2c1` [Example 3, 1-(3-{[(R)-3-(2,3-dihydro-benzo[1,4]dioxin-6-yl)-2-oxo-oxazolidin-5-ylmethyl]-amino}-propyl)-7-methoxy-1H-quinolin-2-one], the MIC was not above 0.031 µg/mL.
`O=C1O[C@H](CNCCCn2c(=O)ccc3ccc(Br)cc32)CN1c1ccc2c(c1)OCCO2` [Example 4, 7-bromo-1-(3-{[(R)-3-(2,3-dihydro-benzo[1,4]dioxin-6-yl)-2-oxo-oxazolidin-5-ylmethyl]-amino}-propyl)-1H-quinolin-2-one] yielded an MIC not above 0.031 µg/mL.
With `COc1ccc2ncc(=O)n(CCC(=O)NC[C@@H]3CN(c4ccc5c(c4)NC(=O)CS5)C(=O)O3)c2c1` [Example 6, 3-(7-methoxy-2-oxo-2H-quinoxalin-1-yl)-N-[(R)-2-oxo-3-(3-oxo-3,4-dihydro-2H-benzo[1,4]thiazin-6-yl)-oxazolidin-5-ylmethyl]-propionamide], the MIC is not above 0.031 µg/mL.
In the case of `COc1ccc2ccc(=O)n(CCC(=O)NC[C@@H]3CN(c4ccc5c(c4)OCCO5)C(=O)O3)c2c1` [Example 7, N-[(R)-3-(2,3-dihydro-benzo[1,4]dioxin-6-yl)-2-oxo-oxazolidin-5-ylmethyl]-3-(7-methoxy-2-oxo-2H-quinolin-1-yl)-propionamide], the lowest concentration to inhibit growth (MIC) was 0.5 µg/mL (≈ 1.04 µM).
Turning to `O=C(CCn1c(=O)ccc2ccc(Br)cc21)NC[C@@H]1CN(c2ccc3c(c2)OCCO3)C(=O)O1` [Example 8, 3-(7-bromo-2-oxo-2H-quinolin-1-yl)-N-[(R)-3-(2,3-dihydro-benzo[1,4]dioxin-6-yl)-2-oxo-oxazolidin-5-ylmethyl]-propionamide], the minimal inhibitory concentration (MIC) worked out at 0.25 µg/mL (≈ 0.473 µM).
Regarding `O=C(CCn1c(=O)ccc2ccc(Br)cc21)NC[C@@H]1CN(c2ccc3c(c2)NC(=O)CS3)C(=O)O1` [Example 9, 3-(7-bromo-2-oxo-2H-quinolin-1-yl)-N-[(R)-2-oxo-3-(3-oxo-3,4-dihydro-2H-benzo[1,4]thiazin-6-yl)-oxazolidin-5-ylmethyl]-propionamide], the MIC is not above 0.031 µg/mL.
The compound `COc1ccc2ncc(=O)n(CCC(=O)NC[C@@H]3CN(c4ccc5c(c4)OCCO5)C(=O)O3)c2c1` [Example 10, N-[(R)-3-(2,3-dihydro-benzo[1,4]dioxin-6-yl)-2-oxo-oxazolidin-5-ylmethyl]-3-(7-methoxy-2-oxo-2H-quinoxalin-1-yl)-propionamide] displayed a minimum inhibitory concentration (MIC) of 0.125 µg/mL (≈ 0.26 µM).
Still for that read-out and setting: as for `COc1ccc2ccc(=O)n(CCC(=O)NC[C@@H]3CN(c4ccc5c(c4)NC(=O)CS5)C(=O)O3)c2c1` [Example 11, 3-(7-methoxy-2-oxo-2H-quinolin-1-yl)-N-[(R)-2-oxo-3-(3-oxo-3,4-dihydro-2H-benzo[1,4]thiazin-6-yl)-oxazolidin-5-ylmethyl]-propionamide], the figure is not above 0.031 µg/mL; as for `COc1ccc2ccc(=O)n(C[C@H](O)CNC[C@@H]3CN(c4ccc5c(c4)NC(=O)CO5)C(=O)O3)c2c1.Cl` [Example 13, 6-((R)-5-{[(R)-2-hydroxy-3-(7-methoxy-2-oxo-2H-quinolin-1-yl)-propylamino]-methyl}-2-oxo-oxazolidin-3-yl)-4H-benzo[1,4]oxazin-3-one hydrochloride], not above 0.031 µg/mL.
The compound `COc1ccc2ccc(=O)n(C[C@H](O)CNC[C@@H]3CN(c4ccc5c(c4)NC(=O)CS5)C(=O)O3)c2c1.Cl` [Example 14, 6-((R)-5-{[(R)-2-hydroxy-3-(7-methoxy-2-oxo-2H-quinolin-1-yl)-propylamino]-methyl}-2-oxo-oxazolidin-3-yl)-4H-benzo[1,4]thiazin-3-one hydrochloride] gave an MIC not above 0.031 µg/mL.
Compound `COc1ccc2ccc(=O)n(C[C@@H](O)CNC[C@@H]3CN(c4ccc5c(c4)NC(=O)CS5)C(=O)O3)c2c1` [Example 15, 6-((R)-5-{[(S)-2-hydroxy-3-(7-methoxy-2-oxo-2H-quinolin-1-yl)-propylamino]-methyl}-2-oxo-oxazolidin-3-yl)-4H-benzo[1,4]thiazin-3-one] gave an MIC not above 0.031 µg/mL.
On the same count and under the same terms, as for `COc1ccc2ccc(=O)n(C[C@@H](O)CNC[C@@H]3CN(c4cc5c(cc4F)SCC(=O)N5)C(=O)O3)c2c1` [Example 16, 7-fluoro-6-((R)-5-{[(S)-2-hydroxy-3-(7-methoxy-2-oxo-2H-quinolin-1-yl)-propylamino]-methyl}-2-oxo-oxazolidin-3-yl)-4H-benzo[1,4]thiazin-3-one], the figure is not above 0.031 µg/mL; as for `COc1ccc2ncc(=O)n(CCCNC[C@@H]3CN(c4ccc5c(c4)NC(=O)CS5)C(=O)O3)c2n1` [Example 17, 6-methoxy-4-(3-{[(R)-2-oxo-3-(3-oxo-3,4-dihydro-2H-benzo[1,4]thiazin-6-yl)-oxazolidin-5-ylmethyl]-amino}-propyl)-4H-pyrido[2,3-b]pyrazin-3-one], not above 0.031 µg/mL.
Same read-out and setting: as for `COc1ccc2ncc(=O)n(CCCNC[C@@H]3CN(c4ccc5c(c4)OCCO5)C(=O)O3)c2n1` [Example 18, 4-(3-{[(R)-3-(2,3-dihydro-benzo[1,4]dioxin-6-yl)-2-oxo-oxazolidin-5-ylmethyl]-amino}-propyl)-6-methoxy-4H-pyrido[2,3-b]pyrazin-3-one], the figure is not above 0.031 µg/mL; as for `COc1ccc2ncc(=O)n(CCCNC[C@@H]3CN(c4ccc5c(c4)NC(=O)CO5)C(=O)O3)c2n1` [Example 19, 6-methoxy-4-(3-{[(R)-2-oxo-3-(3-oxo-3,4-dihydro-2H-benzo[1,4]oxazin-6-yl)-oxazolidin-5-ylmethyl]-amino}-propyl)-4H-pyrido[2,3-b]pyrazin-3-one], not above 0.031 µg/mL.
The compound `COc1ccc2ncc(=O)n(CCNCC[C@@H]3CN(c4ccc5c(c4)NC(=O)CS5)C(=O)O3)c2n1` [Example 20, 6-methoxy-4-(2-{2-[(R)-2-oxo-3-(3-oxo-3,4-dihydro-2H-benzo[1,4]thiazin-6-yl)-oxazolidin-5-yl]-ethylamino}-ethyl)-4H-pyrido[2,3-b]pyrazin-3-one] returned an MIC not above 0.031 µg/mL.
Same read-out and setting: as for `COc1ccc2ncc(=O)n(CCNCC[C@@H]3CN(c4ccc5c(c4)NC(=O)CO5)C(=O)O3)c2n1` [Example 21, 6-methoxy-4-(2-{2-[(R)-2-oxo-3-(3-oxo-3,4-dihydro-2H-benzo[1,4]oxazin-6-yl)-oxazolidin-5-yl]-ethylamino}-ethyl)-4H-pyrido[2,3-b]pyrazin-3-one], the figure is not above 0.031 µg/mL; as for `COc1ccc2ncc(=O)n(C3CN(CC[C@@H]4CN(c5ccc6c(c5)NC(=O)CS6)C(=O)O4)C3)c2n1` [Example 22, 6-methoxy-4-(1-{2-[(R)-2-oxo-3-(3-oxo-3,4-dihydro-2H-benzo[1,4]thiazin-6-yl)-oxazolidin-5-yl]-ethyl}-azetidin-3-yl)-4H-pyrido[2,3-b]pyrazin-3-one], not above 0.031 µg/mL.
Still for that read-out and setting: as for `COc1ccc2ncc(=O)n(C3CN(CCC[C@@H]4CN(c5ccc6c(c5)NC(=O)CS6)C(=O)O4)C3)c2n1` [Example 23, 6-methoxy-4-(1-{3-[(R)-2-oxo-3-(3-oxo-3,4-dihydro-2H-benzo[1,4]thiazin-6-yl)-oxazolidin-5-yl]-propyl}-azetidin-3-yl)-4H-pyrido[2,3-b]pyrazin-3-one], the figure is not above 0.031 µg/mL; as for `COc1ccc2ncc(=O)n(C3CN(CC[C@H]4CN(c5ccc6c(c5)NC(=O)CS6)C(=O)O4)C3)c2n1` [Example 24, 6-methoxy-4-(1-{2-[(S)-2-oxo-3-(3-oxo-3,4-dihydro-2H-benzo[1,4]thiazin-6-yl)-oxazolidin-5-yl]-ethyl}-azetidin-3-yl)-4H-pyrido[2,3-b]pyrazin-3-one], not above 0.031 µg/mL; as for `COc1ccc2ncc(=O)n(C[C@H](O)CNC[C@@H]3CN(c4ccc5c(c4)NC(=O)CS5)C(=O)O3)c2n1` [Example 25, 4-((R)-2-hydroxy-3-{[(R)-2-oxo-3-(3-oxo-3,4-dihydro-2H-benzo[1,4]thiazin-6-yl)-oxazolidin-5-ylmethyl]-amino}-propyl)-6-methoxy-4H-pyrido[2,3-b]pyrazin-3-one], not above 0.031 µg/mL.
